Measured values taken from US11534412B2, “Application of totarol and pharmaceutical composition containing totarol” (Emergopharm SP. Z O.O. SP.K., priority 2017, dated 2022).

System: Streptococcus agalactiae - clinical strain
Test: Determination of the MIC value of totarol, broth dilution in 96-well plates with OD and quantitative culture
Assay type: cell-based
Conditions: for OD, average of 3 measurements / OD: 620 nm
Experimental: Test of antibacterial activity of totarol using DMI (dimethylisosorbide) as a solvent.
1 ml of the suspension was collected to 9 ml of a TSB broth ([…]). Suspensions with a dilution of 10^−6 were prepared in the described way. A suspension with a cell density of 10^5 cfu/ml was selected for further investigations. For each strain, 2 96-well plates were prepared: the first one was intended for the OD measurement, the second one—for quantitative culture on solid media. • A/ to wells B1-D1, B2-D2 and B-D 4-11, 100 µl of the broth were added; • B/ to wells B3-D3, 200 µl of the broth were added; • C/ to wells B1-D1, 1 µl of stock I was added; • D/ to wells B2-D2, 1 µl of stock II was added; • E/ to wells B3-D3, 2 µl of stock III were added. Using a multichannel pipette, 100 µl of the sample were collected from each of the B3-D3 wells and placed in wells B4-D4 (mixing by sucking the content in and letting it out for 5 times). The pipette tips were replaced and 100 µl of the content were collected from of the B4-D4 wells, and placed in wells B5-D5, mixing as previously. These operations were repeated through the wells B11-D11. The content in the B11-D11 wells was mixed, and 100 µl of the fluid were collected and discarded. This way, a series of dilutions of totarol samples in DMI in the range of 0.32% to 0.0004% was obtained. Then, 100 µl of a corresponding bacterial culture were added to the wells B, C, D 1-11. In consequence, a change in the final concentration range occurred, to 0.16%-0.0002%. Control Preparation: • Negative control: 100 µl of the broth+1 pl DMI were added to the Al well. • Positive control (I): 100 µl of the broth with the bacterial culture were added to the wells E1-G1. • Diluent positive control (II): 100 µl of the broth with the bacterial culture+1 pl DMI were added to the wells E2-G2. The OD value in the individual wells was read at the wavelength of 620 nm (read time 0). From the second 96-well plate, a culture was inoculated by a quantitative method from every dilution onto a well with a proper solid medium, and incubated for 24 h at 37° C. under aerobic or anaerobic conditions, depending on the strain. The plates were incubated under aerobic conditions or in an atmosphere of an elevated CO2 concentration (for the strains requiring it) in an incubator at 37° C. The OD was read after 8 h, 16 h, and 24 h, respectively. Before every OD measurement, the contents of the wells were mixed delicately. In parallel to the OD readout, cultures we inoculated from the second 96-well plate, from every dilution, into plates with a proper solid medium, and incubated for 24 h at 37° C., under aerobic or anaerobic conditions. For the analysis of the experimental results, an average value of the OD measurement obtained from three repetitions in the individual times (0, 8, 16, and 24 h) for the individual microbes (Gardnerella vaginalis, Streptococcus agalactiae, Enterococcus faecalis, Lactobacillus gasseri/plantarum) was taken. Additionally, the number of bacteria grown on solid media was taken into account. The results of the tests confirm the specific, concentration-dependent selectiveness, and the high antibacterial effectiveness of totarol against the pathogenic microorganisms: Gardnerella vaginalis, Streptococcus agalactiae, Enterococcus faecalis at low MIC values safe for bacteria of the Lactobacillus genus.

MIC value (S. agalactiae): 0.0013%
Compound: CC(C)c1c(O)ccc2c1CC[C@H]1C(C)(C)CCC[C@]21C [Totarol, totarol]
Viable bacterial count by quantitative culture (cfu/ml) (totarol 0.0002%, 0 h): 3.4 × 10^5 cfu/ml | OD, average of 3 measurements (totarol 0.0002%, 0 h): 0.289 | Viable bacterial count by quantitative culture (cfu/ml) (totarol 0.0002%, 8 h): 4 × 10^6 cfu/ml | OD, average of 3 measurements (totarol 0.0002%, 8 h): 0.314 | Viable bacterial count by quantitative culture (cfu/ml) (totarol 0.0002%, 16 h): 1.1 × 10^6 cfu/ml | OD, average of 3 measurements (totarol 0.0002%, 16 h): 0.498 | Viable bacterial count by quantitative culture (cfu/ml) (totarol 0.0002%, 24 h): 1 × 10^7 cfu/ml | OD (totarol 0.0002%, 24 h): 0.682 | Viable bacterial count by quantitative culture (cfu/ml) (totarol 0.0004%, 0 h): 6 × 10^5 cfu/ml | OD, average of 3 measurements (totarol 0.0004%, 0 h): 0.305 | Viable bacterial count by quantitative culture (cfu/ml) (totarol 0.0004%, 8 h): 6 × 10^6 cfu/ml | OD, average of 3 measurements (totarol 0.0004%, 8 h): 0.318 | Viable bacterial count by quantitative culture (cfu/ml) (totarol 0.0004%, 16 h): 9.1 × 10^5 cfu/ml | OD, average of 3 measurements (totarol 0.0004%, 16 h): 0.493 | Viable bacterial count by quantitative culture (cfu/ml) (totarol 0.0004%, 24 h): 2 × 10^7 cfu/ml | OD (totarol 0.0004%, 24 h): 0.668 | Viable bacterial count by quantitative culture (cfu/ml) (totarol 0.0007%, 0 h): 4.5 × 10^5 cfu/ml | OD, average of 3 measurements (totarol 0.0007%, 0 h): 0.297 | Inoculation cfu/ml (totarol 0.0007%, 8 h): 6 × 10^4 cfu/ml | OD, average of 3 measurements (totarol 0.0007%, 8 h): 0.319 | Viable bacterial count by quantitative culture (cfu/ml) (totarol 0.0007%, 16 h): 3.5 × 10^6 cfu/ml | OD, average of 3 measurements (totarol 0.0007%, 16 h): 0.630 | Viable bacterial count by quantitative culture (cfu/ml) (totarol 0.0007%, 24 h): 6 × 10^7 cfu/ml | OD (totarol 0.0007%, 24 h): 0.941 | Viable bacterial count by quantitative culture (cfu/ml) (totarol 0.0013%, 0 h): 3.3 × 10^5 cfu/ml | OD, average of 3 measurements (totarol 0.0013%, 0 h): 0.299 | Viable bacterial count by quantitative culture (cfu/ml) (totarol 0.0013%, 8 h): 0 cfu/ml | OD, average of 3 measurements (totarol 0.0013%, 8 h): 0.302 | Viable bacterial count by quantitative culture (cfu/ml) (totarol 0.0013%, 16 h): 0 cfu/ml | OD, average of 3 measurements (totarol 0.0013%, 16 h): 0.302 | Viable bacterial count by quantitative culture (cfu/ml) (totarol 0.0013%, 24 h): 0 cfu/ml | OD (totarol 0.0013%, 24 h): 0.302 | Viable bacterial count by quantitative culture (cfu/ml) (totarol 0.0025%, 0 h): 2.6 × 10^5 cfu/ml | OD, average of 3 measurements (totarol 0.0025%, 0 h): 0.289 | Viable bacterial count by quantitative culture (cfu/ml) (totarol 0.0025%, 8 h): 0 cfu/ml | OD, average of 3 measurements (totarol 0.0025%, 8 h): 0.290 | Viable bacterial count by quantitative culture (cfu/ml) (totarol 0.0025%, 16 h): 0 cfu/ml | OD, average of 3 measurements (totarol 0.0025%, 16 h): 0.291 | Viable bacterial count by quantitative culture (cfu/ml) (totarol 0.0025%, 24 h): 0 cfu/ml | OD (totarol 0.0025%, 24 h): 0.291 | Viable bacterial count by quantitative culture (cfu/ml) (totarol 0.005%, 0 h): 1.5 × 10^5 cfu/ml | OD, average of 3 measurements (totarol 0.005%, 0 h): 0.288 | Viable bacterial count by quantitative culture (cfu/ml) (totarol 0.005%, 8 h): 0 cfu/ml | OD, average of 3 measurements (totarol 0.005%, 8 h): 0.292 | Viable bacterial count by quantitative culture (cfu/ml) (totarol 0.005%, 16 h): 0 cfu/ml | OD, average of 3 measurements (totarol 0.005%, 16 h): 0.296 | Viable bacterial count by quantitative culture (cfu/ml) (totarol 0.005%, 24 h): 0 cfu/ml | OD (totarol 0.005%, 24 h): 0.300 | Viable bacterial count by quantitative culture (cfu/ml) (totarol 0.01%, 0 h): 10^5 cfu/ml | OD, average of 3 measurements (totarol 0.01%, 0 h): 0.297 | Viable bacterial count by quantitative culture (cfu/ml) (totarol 0.01%, 8 h): 0 cfu/ml | OD, average of 3 measurements (totarol 0.01%, 8 h): 0.295 | Viable bacterial count by quantitative culture (cfu/ml) (totarol 0.01%, 16 h): 0 cfu/ml | OD, average of 3 measurements (totarol 0.01%, 16 h): 0.301 | Viable bacterial count by quantitative culture (cfu/ml) (totarol 0.01%, 24 h): 0 cfu/ml | OD (totarol 0.01%, 24 h): 0.307 | Viable bacterial count by quantitative culture (cfu/ml) (totarol 0.02%, 0 h): 10^5 cfu/ml | OD, average of 3 measurements (totarol 0.02%, 0 h): 0.318 | Viable bacterial count by quantitative culture (cfu/ml) (totarol 0.02%, 8 h): 0 cfu/ml | OD, average of 3 measurements (totarol 0.02%, 8 h): 0.323 | Viable bacterial count by quantitative culture (cfu/ml) (totarol 0.02%, 16 h): 0 cfu/ml | OD, average of 3 measurements (totarol 0.02%, 16 h): 0.324 | Viable bacterial count by quantitative culture (cfu/ml) (totarol 0.02%, 24 h): 0 cfu/ml | OD (totarol 0.02%, 24 h): 0.324 | Viable bacterial count by quantitative culture (cfu/ml) (totarol 0.04%, 0 h): 3 × 10^5 cfu/ml | OD, average of 3 measurements (totarol 0.04%, 0 h): 0.406 | Viable bacterial count by quantitative culture (cfu/ml) (totarol 0.04%, 8 h): 0 cfu/ml | OD, average of 3 measurements (totarol 0.04%, 8 h): 0.535 | Viable bacterial count by quantitative culture (cfu/ml) (totarol 0.04%, 16 h): 0 cfu/ml | OD, average of 3 measurements (totarol 0.04%, 16 h): 0.489 | Viable bacterial count by quantitative culture (cfu/ml) (totarol 0.04%, 24 h): 0 cfu/ml | OD (totarol 0.04%, 24 h): 0.405 | Viable bacterial count by quantitative culture (cfu/ml) (totarol 0.08%, 0 h): 5 × 10^5 cfu/ml | OD, average of 3 measurements (totarol 0.08%, 0 h): 0.563 | Viable bacterial count by quantitative culture (cfu/ml) (totarol 0.08%, 8 h): 0 cfu/ml | OD, average of 3 measurements (totarol 0.08%, 8 h): 0.564 | Viable bacterial count by quantitative culture (cfu/ml) (totarol 0.08%, 16 h): 0 cfu/ml | OD, average of 3 measurements (totarol 0.08%, 16 h): 0.540 | Viable bacterial count by quantitative culture (cfu/ml) (totarol 0.08%, 24 h): 0 cfu/ml | OD (totarol 0.08%, 24 h): 0.430 | Viable bacterial count by quantitative culture (cfu/ml) (totarol 0.16%, 0 h): 2 × 10^5 cfu/ml | OD, average of 3 measurements (totarol 0.16%, 0 h): 0.512 | Viable bacterial count by quantitative culture (cfu/ml) (totarol 0.16%, 8 h): 0 cfu/ml | OD, average of 3 measurements (totarol 0.16%, 8 h): 0.605 | Viable bacterial count by quantitative culture (cfu/ml) (totarol 0.16%, 16 h): 0 cfu/ml | OD, average of 3 measurements (totarol 0.16%, 16 h): 0.569 | Viable bacterial count by quantitative culture (cfu/ml) (totarol 0.16%, 24 h): 0 cfu/ml | OD (totarol 0.16%, 24 h): 0.615
